Test results reported in patent US20130172308A1, “ANTIMICROBIAL AGENTS” (John Grant COLLINS, priority 2011, published 2013).

Tests used:
[1] = test system: Plasmodium falciparum strain D6; assay: [3H]-hypoxanthine growth inhibition assay; format: cell-based; conditions: mean (SD), 96 h exposure, chloroquine-sensitive strain; for IC50: read-out: IC50 D6; for IC90: read-out: IC90 D6
Protocol: (§1) The in vitro antimalarial activities of two of the dinuclear ruthenium(II) complexes and chloroquine were assessed by exposing P. falciparum strains to ten serially diluted two-fold concentrations of each compound. Parasite growth was measured by uptake of tritiated [^3H]-hypoxanthine into newly synthesised parasitic DNA.
(§2) The [^3H]-hypoxanthine growth inhibition assay (Desjardins et al., 1979 Antimicrobial Agents Chemother 16: 710-718) was used to evaluate the in vitro antimalarial activity of the compounds. Briefly, synchronised parasite cultures (>90% rings, 6 to 8 h post invasion) in [^3H]-RPMI-LPLF complete medium with 0.5% parasitaemia and 2% haematocrit were exposed to the compounds at ten two-fold concentrations, ranging from 10,000 to 20 nM in 96-well microtitre plates. Chloroquine was used as a reference drug. Uninfected RBCs at 2% haematocrit were used as background controls. For the 96 h exposure period, the plates were incubated in the gas mixture at 37° C. for approximately 48 h, followed by the addition of 0.2 μCi of ^3H-hypoxanthine (GE Healthcare, Amersham) in [^3H]-RPMI-1640-LPLF to each well and a further 48 h of incubation and then frozen at −20° C. Plates were thawed and harvested using Tomtech Harvester 96 Mach III and radioactive counts were obtained using Wallac TriLux 1450 Microbeta Liquid Scintillation Counter (Perkin Elmer, USA). All assays were performed in triplicate for each strain and at least on two separate occasions.
(§3) Tritiated hypoxanthine uptake data were analysed in Graphpad Prism V5.0 software (GraphPad Software Inc. USA). The concentrations of the dinuclear ruthenium(II) complexes and chloroquine were transformed into logarithmic values. After subtracting the background values, the data from drug-treated wells were normalised against drug-free control wells. Non-linear regression analysis was carried out of the compound's concentration versus parasitic hypoxanthine incorporation. The in vitro antimalarial activity of the compound is defined as inhibitory concentrations (IC50) and (IC90) that cause 50% and 90% inhibition of parasite growth as determined by measuring [^3H]-hypoxanthine incorporation.

[2] = test system: Plasmodium falciparum strain W2; assay: [3H]-hypoxanthine growth inhibition assay; format: cell-based; conditions: mean (SD), 96 h exposure, chloroquine-resistant strain; for IC50: read-out: IC50 W2; for IC90: read-out: IC90 W2
Protocol: as §1, §2, §3

[3] = test system: MRSA (a wild clinical strain from the JCU culture collection); assay: MIC determination, broth micro-dilution (CAMHB); format: cell-based, methicillin-resistant S. aureus; conditions: Table 4; CAMHB; all ΔΔ- enantiomers
Summary of the method: (§4)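 Ruthenium complexes two-fold serially diluted in cation-adjusted Mueller Hinton broth, final range 0.25–128 […], with equal volume of bacterial suspension; duplicate determinations, gentamicin as positive control. Plates incubated 37° C for 24 h; MIC by standard micro-dilution.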

P. aeruginosa = assay: Minimum Bactericidal Concentration (MBC) assay (CAMHB); format: cell-based, Pseudomonas aeruginosa; conditions: Table 4, all ΔΔ- enantiomers
Protocol: (§5) Further MIC assays and Minimum Bactericidal Concentration (MBC) assays were conducted against Gram-positive and Gram-negative bacterial strains using symmetric and non-symmetric, inert and labile complexes.

S. aureus ATCC 25923 = assay: MIC determination, broth micro-dilution (CAMHB); format: cell-based, Staphylococcus aureus; conditions: Table 4; CAMHB; all ΔΔ- enantiomers
Summary of the method: as §4

E. coli = assay: Minimum Bactericidal Concentration (MBC) assay (CAMHB); format: cell-based, Escherichia coli; conditions: Table 4, all ΔΔ- enantiomers
Protocol: as §5

E. coli ATCC 25922 = assay: MIC determination, broth micro-dilution (CAMHB); format: cell-based, Escherichia coli; conditions: Table 4; CAMHB; all ΔΔ- enantiomers
Summary of the method: as §4

[4] = format: physicochemical; conditions: pH 7.4
Protocol: The primary difference between the members of the Rubbn family of complexes is the number of methylene groups in the flexible linking chain. […] Lipophilicity is a significant factor affecting the biological activity of most therapeutic compounds, as it relates to the capacity of the drug to penetrate through the cell membrane. The standard octanol-water partition coefficient (logP) was determined for the Rubbn series (F. Lombardo, B. Faller, M. Shalaeva, I. Tetko and S. Tilton, Methods and Principles in Medicinal Chemistry, 2008, 37, 407) parent model mononuclear species ([Ru(phen)2(Me2bpy)]^2+) and the trinuclear and tetranuclear complexes.
The partition coefficients (logP) were measured using the shake flask technique: each ruthenium complex (at both 0.05 and 0.1 mM) was dissolved in the water phase (0.2 M Na2HPO4—NaH2PO4 buffer, pH=7.4) and an equivalent volume of n-octanol was added.
The two phases were mutually saturated by shaking overnight at ambient temperature and then were allowed to separate on standing. The concentration of the metal complex in each phase was determined spectrophotometrically at l=450 nm.

P. aeruginosa ATCC 27853 = assay: MIC determination, broth micro-dilution (CAMHB); format: cell-based, Pseudomonas aeruginosa; conditions: Table 4; CAMHB; all ΔΔ- enantiomers
Summary of the method: as §4

S. aureus = assay: Minimum Bactericidal Concentration (MBC) assay (CAMHB); format: cell-based, Staphylococcus aureus; conditions: Table 4, all ΔΔ- enantiomers
Protocol: as §5

MRSA = assay: as above; format: cell-based, methicillin-resistant S. aureus; conditions: Table 4, all ΔΔ- enantiomers
Protocol: as §5

Compound | IC50 [1] [nM] | IC90 [1] [nM] | IC50 [2] [nM] | IC90 [2] [nM] | MIC MRSA [3] | MBC P. aeruginosa (P. aeruginosa) [µg/mL] | MIC S. aureus (S. aureus ATCC 25923) | MBC E. coli (E. coli) [µg/mL] | MIC E. coli (E. coli ATCC 25922) | logP [4] | MIC P. aeruginosa (P. aeruginosa ATCC 27853) | MBC S. aureus (S. aureus) [µg/mL] | MBC MRSA (MRSA) [µg/mL]
Cc1ccnc(-c2cc(CCCCCCCCCCCCCCCCc3ccnc(-c4cc(C)ccn4)c3)ccn2)c1.[Cl-].[Cl-].[Cl-].[Cl-].[Ru+2].[Ru+2].c1cnc2c(c1)ccc1cccnc12.c1cnc2c(c1)ccc1cccnc12.c1cnc2c(c1)ccc1cccnc12.c1cnc2c(c1)ccc1cccnc12 [Rubb16, [{Ru(phen)2}2(μ-bb16)]Cl4] | 226 | 413 | 289 | 444 | 1 | 8 | 1 | 2 | 2 | −1.9 | 8 | 1 | 2
[{Ru(phen)2}2(μ-bb12)] [Rubb12] | 733 | 1250 | 739 | 1400 | 1 | 32 | 1 | 2 | 2 | −2.7 | 16 | 2 | 2
